This note sets out measurements from ChEMBL document CHEMBL3880394, “Benzazole derivatives and their use as jnk modulators” (2003).

The structures appear in SMILES notation.

Experiment [1] in a line: Neuroprotective activity against NGF, arabinosine deficiency and anti NGF antibody-mediated cell death in sympathetic neurons from new born rat superior cervical ganglia assessed as survival rate after 24 hrs by MTT assay relative to control. The format is functional, Sympathetic neuron. (Tetrazolium assays rely on reduction of a dye to a coloured formazan, in cell work by metabolically active cells.)

Experiment [2] can be described thus: Antiinflammatory activity in human Jurkat cells assessed as inhibition of PMA/ionomycine-induced IL2 production preincubated for 30 mins followed by PMA/ionomycine induction measured after 24 hrs by ELISA relative to control. It counts as functional. On the technique in general: An ELISA detects its analyte on a solid surface through an enzyme-linked reagent.

In the case of `N#CC(c1ccnc(OCc2ccc(Cl)c(Cl)c2)n1)c1nc2ccccc2s1` (stereo not given), in experiment [1], the Survival entry is given as “<=80%”.
For `N#CC(c1ccnc(OCc2ccccn2)n1)c1nc2ccccc2s1` (stereo not given), the “inhibition (INH)” value in experiment [2] was more than 30%.
Take `N#CC(c1ccnc(NCCCn2ccnc2)n1)c1nc2ccccc2s1` (stereo not given): the Survival entry in experiment [1] is “<=80%”.
As for `N#CC(c1ccnc(Cl)n1)c1nc2ccccc2s1` (stereo not given), the “inhibition (INH)” value in experiment [2] is more than 30%. Also, the Survival entry in experiment [1] is recorded as “<=80%”.
